Active and inactive are the calls of the source. No cut-off for these calls is given here.
Assays:
[1] = tested on: Influenza A virus; assay type: functional, organism-based; conditions: A/Duck/Guangdong/212/2004(H5N1), A549
[2] = Cytotoxicity against human A549 cells assessed as reduction in cell viability by MTT assay; assay type: cell-based
[3] = in vitro; conditions: human, A549 cells
[4] = tested on: MDCK; assay: (§1) Cytotoxicity against dog MDCK cells assessed as reduction in cell viability; assay type: cell-based, Canis lupus familiaris; conditions: mdck
[5] = as §1; assay type: cell-based, Canis lupus familiaris; conditions: MDCK cells
[6] = tested on: Influenza A virus; assay type: functional, organism-based; conditions: A/Duck/Guangdong/212/2004(H5N1), dose 80.0 mg/kg, time 5.0 day
[7] = (§2) Binding affinity to Influenza A virus (A/Viet Nam/1203/2004(H5N1)) hemagglutin by surface plasmon resonance assay
[8] = tested on: Influenza A virus (A/Viet Nam/1203/2004(H5N1)); assay: as §2
[9] = tested on: Influenza A virus; assay type: functional, organism-based; conditions: A/Duck/Guangdong/212/2004(H5N1), A549, dose 25.0 µM
[10] = tested on: Influenza A virus; assay type: functional, organism-based; conditions: A/Duck/Guangdong/212/2004(H5N1), dose mg/kg 40-160, time 5.0 day
[11] = tested on: Vesicular stomatitis virus; assay: Antiviral activity against VSV-G enveloped pseudovirus infected in MDCK cells assessed as inhibition of viral entry at 1 to 100 uM; assay type: functional, organism-based; conditions: dose microM 1-100
[12] = tested on: MDCK; assay: Cytotoxicity against dog MDCK cells assessed as reduction in cell viability at 0.78125 to 200 uM; assay type: cell-based, Canis lupus familiaris; conditions: dose 0.78125-200 µM
[13] = tested on: Erythrocyte; assay: Inhibition of Hemagglutinin in Influenza A virus (H5N1) assessed as reduction in virus-induced agglutination of chicken erythrocytes by hemagglutination assay; assay type: cell-based; conditions: dose microM 5-160
[14] = tested on: Influenza A virus (A/Thailand/Kan353/2004(H5N1)); assay: Inhibition of Influenza A virus (A/Thailand/Kan353/2004(H5N1)) neuraminidase N1 at 5 to 20 microM by fluorescence method; conditions: dose microM 5-20
[15] = tested on: H5N1 subtype; assay: Antiviral activity against Influenza A virus (A/Thailand/Kan353/2004(H5N1)) infected in MDCK cells assessed as inhibition of viral entry; assay type: functional, organism-based

Which IC50 [1] does the source give for `C[C@H]1[C@H](C)CC[C@]2(C(=O)OC3CCCC3)CC[C@]3(C)C(=CC[C@@H]4[C@@]5(C)CC[C@@H](O[C@@H]6O[C@H](CO)[C@@H](O[C@@H]7O[C@@H](C)[C@H](O)[C@@H](O)[C@H]7O)[C@H](O)[C@H]6O[C@@H]6O[C@@H](C)[C@H](O)[C@@H](O)[C@H]6O)C(C)(C)[C@@H]5CC[C@]43C)[C@H]12` here?
The IC50 was 40.5 µM.

What about the CC50 [2] of the same compound?
The CC50 was 524 µM.

What about the selectivity ratio [3] of the same compound?
The selectivity ratio was 12.9.

For `CNC(=O)[C@]12CC[C@@H](C)[C@H](C)[C@H]1C1=CC[C@@H]3[C@@]4(C)CC[C@@H](O[C@@H]5O[C@H](CO)[C@@H](O[C@@H]6O[C@@H](C)[C@H](O)[C@@H](O)[C@H]6O)[C@H](O)[C@H]5O[C@@H]5O[C@@H](C)[C@H](O)[C@@H](O)[C@H]5O)C(C)(C)[C@@H]4CC[C@@]3(C)[C@]1(C)CC2`, which IC50 [1] is on record?
Its IC50 is 12.2 µM.

And the CC50 [2]?
The CC50 was over 1000 µM.

What about the selectivity ratio [3] of the same compound?
The selectivity ratio was over 81.7.

With `CCCCCOC(=O)[C@]12CC[C@@H](C)[C@H](C)[C@H]1C1=CC[C@@H]3[C@@]4(C)CC[C@@H](O[C@@H]5O[C@H](CO)[C@@H](O[C@@H]6O[C@@H](C)[C@H](O)[C@@H](O)[C@H]6O)[C@H](O)[C@H]5O[C@@H]5O[C@@H](C)[C@H](O)[C@@H](O)[C@H]5O)C(C)(C)[C@@H]4CC[C@@]3(C)[C@]1(C)CC2` as the compound, how does the IC50 [1] read?
Its IC50 is 29.3 µM.

What about the CC50 [2] of the same compound?
The CC50 was 489 µM.

And the selectivity ratio [3]?
The selectivity ratio was 16.7.

Which IC50 [1] does the source give for `C[C@H]1[C@H](C)CC[C@]2(C(=O)NCc3ccccc3)CC[C@]3(C)C(=CC[C@@H]4[C@@]5(C)CC[C@@H](O[C@@H]6O[C@H](CO)[C@@H](O[C@@H]7O[C@@H](C)[C@H](O)[C@@H](O)[C@H]7O)[C@H](O)[C@H]6O[C@@H]6O[C@@H](C)[C@H](O)[C@@H](O)[C@H]6O)C(C)(C)[C@@H]5CC[C@]43C)[C@H]12` here?
Its IC50 is over 50 µM.

For `COC(=O)[C@]12CC[C@@H](C)[C@H](C)[C@H]1C1=CC[C@@H]3[C@@]4(C)CC[C@@H](O[C@@H]5O[C@H](CO)[C@@H](O[C@@H]6O[C@@H](C)[C@H](O)[C@@H](O)[C@H]6O)[C@H](O)[C@H]5O[C@@H]5O[C@@H](C)[C@H](O)[C@@H](O)[C@H]5O)C(C)(C)[C@@H]4CC[C@@]3(C)[C@]1(C)CC2`, which IC50 [1] is on record?
Its IC50 is 16.4 µM.

What about the CC50 [2] of the same compound?
Its CC50 is 363 µM.

And the selectivity ratio [3]?
The selectivity ratio was 22.1.

And the Activity [4]?
Its Activity is “Non-Toxic”.

Which CC50 [5] does the source give for `C[C@H]1[C@H](C)CC[C@]2(C(=O)N(C)C)CC[C@]3(C)C(=CC[C@@H]4[C@@]5(C)CC[C@H](O[C@@H]6O[C@H](CO)[C@@H](O[C@@H]7O[C@@H](C)[C@H](O)[C@@H](O)[C@H]7O)[C@H](O)[C@H]6O[C@@H]6O[C@@H](C)[C@H](O)[C@@H](O)[C@H]6O)C(C)(C)[C@@H]5CC[C@]43C)[C@H]12` here?
The CC50 was 47 µM.

For `NC(=O)c1ncn([C@@H]2O[C@H](CO)[C@@H](O)[C@H]2O)n1` [RIBAVIRIN], which IC50 [1] is on record?
The IC50 was 47.2 µM.

What about the CC50 [2] of the same compound?
Its CC50 is 130 µM.

And the selectivity ratio [3]?
Its selectivity ratio is 2.7.

And the Activity [6]?
The Activity was “Active”.

For `C[C@H]1[C@H](C)CC[C@]2(C(=O)Nc3ccccc3)CC[C@]3(C)C(=CC[C@@H]4[C@@]5(C)CC[C@@H](O[C@@H]6O[C@H](CO)[C@@H](O[C@@H]7O[C@@H](C)[C@H](O)[C@@H](O)[C@H]7O)[C@H](O)[C@H]6O[C@@H]6O[C@@H](C)[C@H](O)[C@@H](O)[C@H]6O)C(C)(C)[C@@H]5CC[C@]43C)[C@H]12`, which IC50 [1] is on record?
Its IC50 is 33.8 µM.

And the CC50 [2]?
The CC50 was over 1000 µM.

What about the selectivity ratio [3] of the same compound?
Its selectivity ratio is over 29.6.

With `CCOC(=O)[C@]12CC[C@@H](C)[C@H](C)[C@H]1C1=CC[C@@H]3[C@@]4(C)CC[C@@H](O[C@@H]5O[C@H](CO)[C@@H](O[C@@H]6O[C@@H](C)[C@H](O)[C@@H](O)[C@H]6O)[C@H](O)[C@H]5O[C@@H]5O[C@@H](C)[C@H](O)[C@@H](O)[C@H]5O)C(C)(C)[C@@H]4CC[C@@]3(C)[C@]1(C)CC2` as the compound, how does the IC50 [1] read?
Its IC50 is 18.1 µM.

What about the CC50 [2] of the same compound?
The CC50 was 375 µM.

What about the selectivity ratio [3] of the same compound?
Its selectivity ratio is 20.7.

What does the source list for `C[C@H]1[C@H](C)CC[C@]2(C(=O)O)CC[C@]3(C)C(=CC[C@@H]4[C@@]5(C)CC[C@@H](O[C@@H]6O[C@H](CO)[C@@H](O[C@@H]7O[C@@H](C)[C@H](O)[C@@H](O)[C@H]7O)[C@H](O)[C@H]6O[C@@H]6O[C@@H](C)[C@H](O)[C@@H](O)[C@H]6O)C(C)(C)[C@@H]5CC[C@]43C)[C@H]12`?
IC50 [1]: 48.7 µM; CC50 [2]: 283 µM; selectivity ratio [3]: 5.8

For `C[C@H]1[C@H](C)CC[C@]2(C(=O)OCc3ccccc3)CC[C@]3(C)C(=CC[C@@H]4[C@@]5(C)CC[C@@H](O[C@@H]6O[C@H](CO)[C@@H](O[C@@H]7O[C@@H](C)[C@H](O)[C@@H](O)[C@H]7O)[C@H](O)[C@H]6O[C@@H]6O[C@@H](C)[C@H](O)[C@@H](O)[C@H]6O)C(C)(C)[C@@H]5CC[C@]43C)[C@H]12`, which IC50 [1] is on record?
The IC50 was over 50 µM.

For `C[C@H]1[C@H](C)CC[C@]2(C(=O)NC3CCCC3)CC[C@]3(C)C(=CC[C@@H]4[C@@]5(C)CC[C@@H](O[C@@H]6O[C@H](CO)[C@@H](O[C@@H]7O[C@@H](C)[C@H](O)[C@@H](O)[C@H]7O)[C@H](O)[C@H]6O[C@@H]6O[C@@H](C)[C@H](O)[C@@H](O)[C@H]6O)C(C)(C)[C@@H]5CC[C@]43C)[C@H]12`, which IC50 [1] is on record?
The IC50 was 18.5 µM.

What about the CC50 [2] of the same compound?
Its CC50 is over 1000 µM.

What about the selectivity ratio [3] of the same compound?
Its selectivity ratio is over 54.1.

Which Kd [7] does the source give for `C[C@H]1[C@H](C)CC[C@]2(C(=O)N(C)C)CC[C@]3(C)C(=CC[C@@H]4[C@@]5(C)CC[C@@H](O[C@@H]6O[C@H](CO)[C@@H](O[C@@H]7O[C@@H](C)[C@H](O)[C@@H](O)[C@H]7O)[C@H](O)[C@H]6O[C@@H]6O[C@@H](C)[C@H](O)[C@@H](O)[C@H]6O)C(C)(C)[C@@H]5CC[C@]43C)[C@H]12` here?
Its Kd is 0.00164 µM.

And the Activity [8]?
Its Activity is “Dose-dependent effect”.

What about the Activity [9] of the same compound?
Its Activity is “Active”.

And the IC50 [1]?
The IC50 was 8.42 µM.

What about the CC50 [2] of the same compound?
Its CC50 is over 1000 µM.

And the Activity [10]?
The Activity was “Dose-dependent effect”.

And the Activity [11]?
The Activity was “inactive”.

And the Activity [12]?
Its Activity is “Non-Toxic”.

And the inhibition [13]?
Its inhibition is “Dose-dependent effect”.

What about the inhibition [14] of the same compound?
The inhibition was “inactive”.

And the selectivity ratio [3]?
Its selectivity ratio is over 119.

And the IC50 [15]?
Its IC50 is 6.29 µM.

— ChEMBL document CHEMBL4699479, “Structure-aided optimization of 3-O-β-chacotriosyl epiursolic acid derivatives as novel H5N1 virus entry inhibitors” (Bioorg Med Chem Lett, 2020)
